Drawing on patent publication US12459952B2, “TREM2 modulators” (Muna Therapeutics ApS, priority 2024, dated 2025), this text covers Emax and EC50 for seven compounds.

This test has as its target T1, Human TREM2 (Homo sapiens, UniProt Q9NZC2).
T1 construct: expressed in transfected cells
The experiment in a line: Human TREM2 cellular phospho-Syk AlphaLISA assay in HEK293/DAP12+TREM2 stable cell line. Format: cell-based. The settings on record: HEK293/DAP12+TREM2 cells; for Emax: maximal response relative to the maximal response of the reference agonist, phospho-Syk AlphaLISA; for EC50: phospho-Syk (Tyr525/526) AlphaLISA signal, 30 min incubation. The text has this: Human TREM2, in vitro Measurement of Triggering Receptor Expressed on Myeloid Cells 2 activity using cellular phosphorylation of Spleen Tyrosine Kinase (“Syk”) Assay
HEK-293 cells were co-transfected with separate plasmids encoding TREM2 and DAP12 to generate a stable cell line. After antibiotic selection, functional clone pool analysis and two successive limiting dilutions, the final clone “HEK293/DAP12+TREM2” underwent a qPCR analysis and a pharmacological validation.
TREM2 signaling through DAP12 was monitored in the HEK293/DAP12+TREM2 stable cell line by measuring the phosphorylation levels of the Syk kinase using the commercially available AlphaLISA SureFire Ultra p-SYK (Tyr525/526) Assay Kit (PerkinElmer #ALSU-PSYK), based on the Perkin Elmer AlphaScreen/AlphaLISA technology.
Compounds are transferred to the test plate and tested in full dose response, 8 concentrations in quadruplicate data points. Compound serial dilutions were performed at Cybi-Felix instrument in 100% DMSO and the dose response curves were assembled in automated fashion in 384MPT at Hamilton STARlet instrument. All the stock solutions were prepared at 20 mM in 100% DMSO. For compounds testing, the starting concentration was 100 μM, dilution steps 1:6. A different concentration's range was adapted for compound's activity based on the preliminary results. Finally, a 384MPT reformatted for all compounds at 8 concentrations, quadruplicates, was used as “mother to child” process with a CyBi@-Well dispenser in which 1 μL of each compound was moved into a destination plate pre-filled with […] of EMEM cell culture medium (BIOWHITTAKER_cat.BE12-125F), thus obtaining 3× concentrated compounds working solution. In columns 1-2 and 23-24 the control wells were added. In particular, dose response curves of a reference control agonist were included in column 1 and 24 as reference control agonist (Reference control agonists used include Human TREM2 polyclonal Antibody AF1828: R&D Systems; Human TREM2 monoclonal Antibody MAB1828: R&D Systems). The dose response curves were tested starting at 30 μM, dilution step 1:6. Both “source” compound plate and “destination” compound plate were barcoded and a relationship between the two plates was thus generated.
HEK293/DAP12+TREM2 cells were cultured in EMEM medium supplemented with IX Penicillin/Streptomycin (BIOWHITTAKER_cat.DE17-602E), ULTRAGLUTAMINE I 200 mM, 10% Fetal Bovine Serum plus antibiotics referred to as “HEK293 Culture Medium”. The day before the experiment, cells were detached by gentle wash with DPBS, followed by 5 min incubation at 37° C. with Trypsin solution. Cells were then diluted in HEK293 Culture Medium without antibiotics, counted and seeded into 384-well poly-D-Lysine coated microplates black/clear bottom (GREINER 781946) at a density of 10,000 cells/well in 25 μL/well by the use of a MATRIX WellMate dispenser. Plates were placed into a humidified cell culture incubator at 37° C. with 5% CO2 until the experimental day. 20-24 hours after seeding mature medium was removed and replaced with 10 μL/well of EMEM cell medium supplemented with 0.1% Pluronic F-68 non-ionic surfactant (Thermofisher, 24040032), referred to as “Assay Buffer”, using the CyBi@-Well instrument. Then 5 μL/well of Assay Buffer containing 3× concentrated test compounds or the reference control agonist (in 0.5% final DMSO concentration) were added to the cells with the CyBi@-Well instrument. Cell plates were incubated for 30 min into a humidified cell culture incubator at 37° C. with 5% CO2, then the medium was removed by manually discard. 20 μL/well of lysis buffer were dispensed using the CyBi@-Well instrument and plates were incubated for 10 min at room temperature on a plate shaker (350 rpm). Then, 10 μL/well of lysate were transferred to the Alpha plates.
The CyBi@-Well instrument was used to dispense 5 μL/well of AlphaLISA Acceptor Bead Solution in IX Immunoassay buffer (Perkin Elmer AL000F). […]

Molecules are shown by their SMILES. Some results are limits rather than exact numbers.

T1 sequence (Q9NZC2 19-230): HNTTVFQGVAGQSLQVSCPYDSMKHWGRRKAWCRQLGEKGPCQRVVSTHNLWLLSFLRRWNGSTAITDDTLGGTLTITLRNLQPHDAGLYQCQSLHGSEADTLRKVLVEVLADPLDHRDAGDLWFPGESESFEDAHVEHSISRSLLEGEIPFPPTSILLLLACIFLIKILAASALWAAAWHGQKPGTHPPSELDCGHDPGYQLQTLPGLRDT
T1 sequence (O43914 22-113 partner): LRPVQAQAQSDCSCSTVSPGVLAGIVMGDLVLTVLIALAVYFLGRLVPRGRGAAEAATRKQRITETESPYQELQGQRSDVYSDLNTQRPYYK

`COc1cc(OC2CN(c3nc(-c4ccc(C#N)cc4F)c4nc(C(F)(F)F)n(C)c(=O)c4n3)C2)ccn1` [Example 21, 3-fluoro-4-(2-(3-((2-methoxypyridin-4-yl)oxy)azetidin-1-yl)-7-methyl-8-oxo-6-(trifluoromethyl)-7,8-dihydropyrimido[5,4-d]pyrimidin-4-yl)benzonitrile]: the Emax was 75 to 110% and the half-maximal effective concentration (EC50) is less than 10 nM.
The matching figures for `Cn1c(C(F)(F)F)nc2c(-c3ccc(C#N)cc3F)nc(N3CC(Oc4ccnc(C5CC5)c4)C3)nc2c1=O` [Example 22, 4-(2-(3-((2-cyclopropylpyridin-4-yl)oxy)azetidin-1-yl)-7-methyl-8-oxo-6-(trifluoromethyl)-7,8-dihydropyrimido[5,4-d]pyrimidin-4-yl)-3-fluorobenzonitrile]: 75 to 110% and 10 to 100 nM.
The matching figures for `Cn1c(C(F)(F)F)nc2c(-c3ccc(C#N)cc3F)nc(N3CC(Oc4cnn(C5CC5)c4)C3)cc2c1=O` [Example 41, 4-(6-(3-((1-cyclopropyl-1H-pyrazol-4-yl)oxy)azetidin-1-yl)-3-methyl-4-oxo-2-(trifluoromethyl)-3,4-dihydropyrido[3,4-d]pyrimidin-8-yl)-3-fluorobenzonitrile]: 75 to 110% and 100 to 1000 nM.
The corresponding values for `Cn1c(C(F)(F)F)nc2c(-c3ccc(C#N)cc3F)nc(N3CC(Oc4ccnc(C#N)c4)C3)nc2c1=O` [Example 20, 4-((1-(4-(4-cyano-2-fluorophenyl)-7-methyl-8-oxo-6-(trifluoromethyl)-7,8-dihydropyrimido[5,4-d]pyrimidin-2-yl)azetidin-3-yl)oxy)picolinonitrile] are 75 to 110% and 10 to 100 nM.
`Cc1nn(C)cc1OC1CN(c2nc(-c3ccc(C#N)cc3F)c3nc(C(F)(F)F)n(C)c(=O)c3n2)C1` [Example 10, 4-(2-(3-((1,3-dimethyl-1H-pyrazol-4-yl)oxy)azetidin-1-yl)-7-methyl-8-oxo-6-(trifluoromethyl)-7,8-dihydropyrimido[5,4-d]pyrimidin-4-yl)-3-fluorobenzonitrile] had a maximum response (Emax) of less than 75% and an EC50 of 100 to 1000 nM.
The corresponding values for `Cn1c(C(F)(F)F)nc2c(-c3ccc(C#N)cc3F)nc(N3CC(Oc4cnccn4)C3)nc2c1=O` [Example 5, 3-fluoro-4-(7-methyl-8-oxo-2-(3-(pyrazin-2-yloxy)azetidin-1-yl)-6-(trifluoromethyl)-7,8-dihydropyrimido[5,4-d]pyrimidin-4-yl)benzonitrile] are less than 75% and 10 to 100 nM.
The matching figures for `Cn1c(C(F)(F)F)nc2c(-c3ccc(C#N)cc3F)nc(N3CC(Oc4ccnc(OC(F)F)c4)C3)nc2c1=O` [Example 24, 4-(2-(3-((2-(difluoromethoxy)pyridin-4-yl)oxy)azetidin-1-yl)-7-methyl-8-oxo-6-(trifluoromethyl)-7,8-dihydropyrimido[5,4-d]pyrimidin-4-yl)-3-fluorobenzonitrile]: 75 to 110% and 10 to 100 nM.
